GI50 and TGI data for 8 compounds are collected here from PubChem BioAssay (NCI).

One may read the GI50 as the concentration at which growth is held to half of that of the control. Broadly, the TGI is the concentration giving total growth inhibition. Read a high TGI as less potent growth arrest.

Common to all, as to experiment: DTP human tumour cell line panel, 48 h
For assay [1], the system named is MDA-MB-231 breast.
The subject of assay [2] is PC-3 prostate.
The subject of assay [3] is HT29 colon.
For assay [4], the system named is MDA-MB-435.
The test system of assay [5] is UACC-62 melanoma.
For assay [6], the system named is M14 melanoma.
Assay [7] concerns EKVX NSCLC.
In assay [8] the test system is OVCAR-4 ovarian.
Assay [9] has as its system SK-MEL-28 melanoma.
Assay [10] deals with RXF 393 renal.

The structures appear in SMILES notation. “And” between values parts separate entries of the source, which are not always exact repeats. Equal entries are not always repeated.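 Interpolation was linear, between the two tested concentrations surrounding the appropriate level; five concentrations were tested over 48 hours in 96-well plates. GI50 marks 50% less growth. Definition used: TGI = concentration required for complete inhibition of growth.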

Take `O=c1cccc(C#CC#CC2=CCCCC2)o1`: the GI50 in assay [1] was 1960 nM; in assay [2] it was 6600 nM; in assay [3], 14000 nM; in [4], 4 µM; in assay [5], 2870 nM; in assay [6], 2130 nM. For the same compound, the GI50 in assay [7] was 10200 nM; in [8], 28 µM; in assay [9] it was more than 29.9 µM; in assay [10] it was 2690 nM. Further, the total growth inhibition concentration (TGI) in assay [1] was 5.3 µM; in assay [2], 11.6 µM; in assay [3], more than 100 µM; in [4] it was 10.4 µM; in assay [5], 8.56 µM; in [6], 6.34 µM. In addition, the TGI was 25.8 µM in assay [7], more than 49.3 µM in [8], more than 52.6 µM in assay [9] and 5.57 µM in assay [10].

As for `O=S(=O)(Nc1cc(Sc2cccc3cccnc23)c(O)c2ccccc12)c1ccccc1`, the GI50 in assay [1] is 470 nM; in assay [2], 467 nM; in assay [3], 2420 nM; in assay [4] it was 2.01 µM; in assay [5], 1490 nM; in [6] it was 1120 nM. Further, the GI50 in assay [7] was 1010 nM; in [8] it was 0.474 µM; in assay [9], 0.801 µM; in [10], 2400 nM. The TGI in assay [1] stood at 6.01 µM; in assay [2], 13.1 µM; in assay [3] it was 14.4 µM; in assay [4] it was 12.6 µM; in assay [5], 4.33 µM; in assay [6], 9.2 µM. The TGI in assay [7] is 8.55 µM; in assay [8] it was 1.75 µM; in [9], 5.57 µM; in [10], 12.3 µM.

As for `CCn1c(SCc2ccc(C)cc2)nnc1-c1nn(-c2ccc(Cl)cc2Cl)c(-c2ccc(Cl)cc2)c1C`, the GI50 is 2350 nM in assay [1]; 490 nM in assay [2]; 1110 nM in assay [3]; 2.85 µM in assay [4]; 2020 nM in assay [5]; 1990 nM in assay [6]. In addition, the GI50 in assay [7] is 2880 nM; in assay [8] it was 1.79 µM; in assay [9] it was 3.11 µM; in assay [10], 2690 nM. The total growth inhibition concentration (TGI) was 8.54 µM in [1]; 10.4 µM in assay [2]; 10.6 µM in assay [3]; 11.5 µM in assay [4]; 10.6 µM in [5]; 10.8 µM in assay [6]. The TGI in assay [7] is 13 µM; in assay [8], 12.4 µM; in assay [9], 15.3 µM; in [10] it was 10.9 µM.

Take `Nc1ccc2cc3ccc(N)cc3nc2c1`: the TGI in assay [1] is 7.94 µM and 5.03 µM and 8.4 µM; in assay [2] it was 4.88 µM and 24.7 µM; in assay [3], 9.02 µM [middle of 4 runs]; in assay [4], 4.37 µM and 4.04 µM; in assay [5], 3.73 µM [middle of 4 runs]; in [7], 10.6 µM and 6.53 µM and 7.66 µM. Besides, the TGI in [8] was 4.23 µM [middle of 4 runs]; in [9], 5.11 µM [middle of 4 runs]; in assay [10], 5.83 µM and 3.15 µM and 1.97 µM. Moreover, the GI50 in [2] is 857 nM and 1960 nM and 1500 nM; in [6], 1.77 µM [middle of 4 runs]; in [7] it was 640 nM; in [8], 1.21 µM [middle of 4 runs]; in assay [10] it was 2030 nM and 1360 nM and 565 nM.

In the case of `COc1cccc2c(=O)c3c(sc12)c(N1CCNCC1)nc1ccccc13`, the GI50 in [1] is 1700 nM; in assay [2], 1620 nM; in [3], 1460 nM; in assay [4], 1.76 µM; in assay [5], 1730 nM; in [6] it was 1860 nM. Further, the GI50 in assay [7] was 1620 nM; in [8] it was 1.8 µM; in assay [9] it was 1.86 µM; in assay [10], 1530 nM. The concentration for total growth inhibition (TGI) in assay [1] was 3.32 µM; in assay [2], 3.28 µM; in assay [3] it was 3.11 µM; in assay [4] it was 3.23 µM; in assay [5], 3.19 µM; in assay [6], 3.48 µM. Also, the TGI was found to be 3.17 µM in [7], 3.62 µM in assay [8], 3.4 µM in [9] and 3.05 µM in assay [10].

For `C/C(N=NC(=S)N(C)C)=C1\C=CC=CN1O`, the TGI in assay [1] was more than 100 µM; in assay [2], more than 100 µM; in assay [3], more than 100 µM; in [4] it was more than 100 µM; in [5] it was more than 93 µM; in [6] it was more than 100 µM. In addition, the TGI in assay [7], in assay [8], in assay [9] and in [10] was more than 100 µM each time.

Turning to `CCc1nc(C(N)=O)c(Nc2ccc(N3CCC(N4CCN(C)CC4)CC3)c(OC)c2)nc1NC1CCOCC1`, the GI50 in assay [1] is 3380 nM and 829 nM and 3520 nM; in assay [3], 569 nM and 251 nM and 467 nM; in [4], 3.23 µM and 0.511 µM and 3.96 µM; in assay [5] it was 1530 nM and 527 nM and 1560 nM; in [6] it was 1100 nM and 253 nM and 961 nM; in [7], 830 nM and 375 nM and 727 nM. The GI50 in [8] is 12.8 µM and > 10 µM and 13.8 µM; in assay [9], 5.04 µM and 0.641 µM and 3.51 µM; in assay [10], 1390 nM and 358 nM and 1700 nM. For the same compound, the total growth inhibition concentration (TGI) is 17.7 µM and > 10 µM and 17.2 µM in [1]; 25.7 µM and > 10 µM and 26 µM in [2]; more than 43.8 µM in [3]; 20.7 µM and > 6.91 µM and 20.8 µM in [4]; 16.9 µM and > 10 µM and 16.4 µM in [5]; 16.4 µM and > 2.57 µM and 17.9 µM in assay [6]. In addition, the TGI was 18.2 µM and > 4.97 µM and 19 µM in assay [7]; 27.8 µM and > 10 µM and 32.2 µM in assay [8]; 21.2 µM and > 2.91 µM and 19.1 µM in assay [9]; 4.54 µM and 1.12 µM and 6.27 µM in [10].

Turning to `Br[C](Br)(Br)[Hg][c]1ccccc1`, the GI50 in assay [1] was 18100 nM; in assay [2], 14700 nM; in assay [3] it was 11100 nM; in assay [4] it was 16.1 µM; in assay [5] it was 16400 nM; in [6], 5230 nM. The GI50 is 22000 nM in assay [7], 19.9 µM in [8], 14.3 µM in [9] and 8550 nM in [10]. In addition, the TGI in assay [1] was determined as 41.3 µM; in assay [2], 28 µM; in [3], 25.5 µM; in assay [4], 30 µM; in assay [5], 38.2 µM; in [6] it was 12.2 µM. For the same compound, the TGI in assay [7] came to 37.7 µM; in assay [8], 41.9 µM; in [9] it was 27.8 µM; in [10], 21.5 µM.
